This is an account of results in ChEMBL document CHEMBL3991601, “The target landscape of clinical kinase drugs” (Science, 2017).

Test [1] addresses Mitogen-activated protein kinase 9 (Homo sapiens, UniProt P45984).
In test [2] the target is 5'-AMP-activated protein kinase catalytic subunit alpha-1 (Homo sapiens, UniProt Q13131).
Test [3] concerns the target T1, Phosphatidylinositol 5-phosphate 4-kinase type-2 alpha (Homo sapiens, UniProt P48426).
T1 sequence (P48426 whole entry): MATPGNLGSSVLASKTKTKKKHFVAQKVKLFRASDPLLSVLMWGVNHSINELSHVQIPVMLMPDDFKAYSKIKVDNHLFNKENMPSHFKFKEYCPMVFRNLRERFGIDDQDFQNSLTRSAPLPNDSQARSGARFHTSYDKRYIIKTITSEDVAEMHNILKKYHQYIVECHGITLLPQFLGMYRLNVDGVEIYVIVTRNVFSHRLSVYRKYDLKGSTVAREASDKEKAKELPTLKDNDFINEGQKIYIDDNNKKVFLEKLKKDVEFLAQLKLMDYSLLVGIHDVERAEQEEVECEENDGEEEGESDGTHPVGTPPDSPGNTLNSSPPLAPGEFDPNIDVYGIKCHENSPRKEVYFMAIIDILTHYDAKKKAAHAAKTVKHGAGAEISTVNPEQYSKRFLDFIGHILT

Test [4] deals with Serine/threonine-protein kinase 16 (Homo sapiens, UniProt O75716).
Chain of Serine/threonine-protein kinase 16 (O75716 whole entry): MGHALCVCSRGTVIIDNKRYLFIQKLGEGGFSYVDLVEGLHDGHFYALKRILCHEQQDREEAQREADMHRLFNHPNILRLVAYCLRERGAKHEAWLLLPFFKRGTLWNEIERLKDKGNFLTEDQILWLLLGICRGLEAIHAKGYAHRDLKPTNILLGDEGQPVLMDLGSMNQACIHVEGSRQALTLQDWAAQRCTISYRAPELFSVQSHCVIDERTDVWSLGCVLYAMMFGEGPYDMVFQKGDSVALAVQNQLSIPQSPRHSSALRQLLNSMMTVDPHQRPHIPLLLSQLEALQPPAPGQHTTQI
In test [5] the target is Calcium/calmodulin-dependent protein kinase type II subunit delta (Homo sapiens, UniProt Q13557).
Chain of Calcium/calmodulin-dependent protein kinase type II subunit delta (Q13557 whole entry): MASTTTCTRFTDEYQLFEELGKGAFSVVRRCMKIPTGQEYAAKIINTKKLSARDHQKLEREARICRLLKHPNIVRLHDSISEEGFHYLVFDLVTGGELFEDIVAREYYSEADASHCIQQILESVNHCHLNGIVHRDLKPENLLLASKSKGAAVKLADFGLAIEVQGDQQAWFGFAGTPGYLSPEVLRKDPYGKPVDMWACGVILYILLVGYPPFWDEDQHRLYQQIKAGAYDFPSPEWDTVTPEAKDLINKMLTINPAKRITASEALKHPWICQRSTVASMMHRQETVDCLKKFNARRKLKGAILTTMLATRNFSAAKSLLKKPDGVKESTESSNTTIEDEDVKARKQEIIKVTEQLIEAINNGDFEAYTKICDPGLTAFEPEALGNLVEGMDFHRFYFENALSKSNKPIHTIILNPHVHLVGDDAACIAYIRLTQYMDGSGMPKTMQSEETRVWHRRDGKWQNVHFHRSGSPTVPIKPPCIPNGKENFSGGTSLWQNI
Test [6] concerns the target Mitogen-activated protein kinase 8 (Homo sapiens, UniProt P45983).
In a further test the target is T2, Ephrin type-B receptor 3 (Homo sapiens, UniProt P54753).
T2 sequence (P54753 whole entry): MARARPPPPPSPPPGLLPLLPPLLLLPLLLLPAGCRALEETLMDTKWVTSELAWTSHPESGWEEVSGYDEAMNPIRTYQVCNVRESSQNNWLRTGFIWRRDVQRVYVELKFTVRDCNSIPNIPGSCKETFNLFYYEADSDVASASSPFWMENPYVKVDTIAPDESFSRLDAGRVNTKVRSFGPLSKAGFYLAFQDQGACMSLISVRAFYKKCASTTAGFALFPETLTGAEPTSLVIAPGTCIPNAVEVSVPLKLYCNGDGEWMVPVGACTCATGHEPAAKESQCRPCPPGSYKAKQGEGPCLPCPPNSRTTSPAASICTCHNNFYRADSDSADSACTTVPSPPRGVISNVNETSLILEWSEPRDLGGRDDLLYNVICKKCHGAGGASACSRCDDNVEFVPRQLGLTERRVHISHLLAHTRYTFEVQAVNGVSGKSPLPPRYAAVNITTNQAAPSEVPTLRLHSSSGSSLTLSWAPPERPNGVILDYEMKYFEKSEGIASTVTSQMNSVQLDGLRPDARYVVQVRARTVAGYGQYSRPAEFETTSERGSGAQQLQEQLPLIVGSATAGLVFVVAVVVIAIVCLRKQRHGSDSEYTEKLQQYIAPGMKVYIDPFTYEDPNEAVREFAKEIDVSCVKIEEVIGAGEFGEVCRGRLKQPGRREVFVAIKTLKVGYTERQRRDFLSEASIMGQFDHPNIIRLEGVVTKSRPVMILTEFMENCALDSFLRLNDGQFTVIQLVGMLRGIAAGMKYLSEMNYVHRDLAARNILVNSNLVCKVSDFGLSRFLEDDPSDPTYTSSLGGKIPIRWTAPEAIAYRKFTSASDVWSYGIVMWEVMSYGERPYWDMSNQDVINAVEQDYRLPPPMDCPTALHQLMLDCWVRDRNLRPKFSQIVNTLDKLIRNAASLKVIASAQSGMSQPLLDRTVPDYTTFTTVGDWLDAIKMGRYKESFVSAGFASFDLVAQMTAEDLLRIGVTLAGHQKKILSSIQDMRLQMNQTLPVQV

Test [7] addresses Dual specificity mitogen-activated protein kinase kinase 2 (Homo sapiens, UniProt P36507).
Test [8] concerns the target T3, Peroxisomal acyl-coenzyme A oxidase 3 (Homo sapiens, UniProt O15254).
T3 sequence (O15254 whole entry): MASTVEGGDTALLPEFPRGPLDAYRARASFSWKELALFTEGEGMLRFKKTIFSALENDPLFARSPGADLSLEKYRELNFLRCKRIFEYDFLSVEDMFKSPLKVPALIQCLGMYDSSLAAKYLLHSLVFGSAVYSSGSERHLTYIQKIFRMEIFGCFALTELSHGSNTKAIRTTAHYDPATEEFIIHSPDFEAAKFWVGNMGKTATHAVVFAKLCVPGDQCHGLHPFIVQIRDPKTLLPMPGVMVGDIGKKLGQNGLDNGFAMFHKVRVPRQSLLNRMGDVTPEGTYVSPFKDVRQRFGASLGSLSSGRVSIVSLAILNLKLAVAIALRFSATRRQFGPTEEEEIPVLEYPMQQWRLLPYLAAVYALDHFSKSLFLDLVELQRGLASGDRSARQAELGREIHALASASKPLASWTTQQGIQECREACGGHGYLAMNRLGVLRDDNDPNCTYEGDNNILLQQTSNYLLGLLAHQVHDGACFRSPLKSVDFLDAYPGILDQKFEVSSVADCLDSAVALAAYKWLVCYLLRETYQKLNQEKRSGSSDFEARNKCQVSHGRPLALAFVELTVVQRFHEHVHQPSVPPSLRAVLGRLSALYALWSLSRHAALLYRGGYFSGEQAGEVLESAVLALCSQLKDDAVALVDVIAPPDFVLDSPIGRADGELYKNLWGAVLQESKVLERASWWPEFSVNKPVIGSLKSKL

The next test deals with GTP-binding protein 4 (Homo sapiens, UniProt Q9BZE4).
Test [9] concerns the target T4, Adenine phosphoribosyltransferase (Homo sapiens, UniProt P07741).
T4 sequence (P07741 whole entry): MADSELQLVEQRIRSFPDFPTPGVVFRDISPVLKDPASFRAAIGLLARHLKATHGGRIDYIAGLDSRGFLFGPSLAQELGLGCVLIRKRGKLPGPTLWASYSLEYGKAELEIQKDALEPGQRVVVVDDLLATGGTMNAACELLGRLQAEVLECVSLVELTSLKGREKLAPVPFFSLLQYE

Active and inactive are the calls of the source. For most assays here, no stated cut-off is given here; in the data, actives have a measured Kd and inactives only a lower limit.

Chain of Mitogen-activated protein kinase 8 (P45983 whole entry): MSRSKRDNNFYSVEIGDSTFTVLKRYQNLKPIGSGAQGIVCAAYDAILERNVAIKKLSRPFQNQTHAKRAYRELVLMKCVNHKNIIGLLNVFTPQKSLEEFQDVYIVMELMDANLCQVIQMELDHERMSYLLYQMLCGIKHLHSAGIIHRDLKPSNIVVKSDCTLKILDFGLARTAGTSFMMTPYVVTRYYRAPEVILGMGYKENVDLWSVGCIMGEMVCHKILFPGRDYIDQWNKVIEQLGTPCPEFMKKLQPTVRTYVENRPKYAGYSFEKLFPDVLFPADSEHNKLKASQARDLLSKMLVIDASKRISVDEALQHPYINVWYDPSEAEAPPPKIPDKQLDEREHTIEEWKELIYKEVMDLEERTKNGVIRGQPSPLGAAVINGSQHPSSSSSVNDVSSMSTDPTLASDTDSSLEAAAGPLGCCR
Chain of 5'-AMP-activated protein kinase catalytic subunit alpha-1 (Q13131 whole entry): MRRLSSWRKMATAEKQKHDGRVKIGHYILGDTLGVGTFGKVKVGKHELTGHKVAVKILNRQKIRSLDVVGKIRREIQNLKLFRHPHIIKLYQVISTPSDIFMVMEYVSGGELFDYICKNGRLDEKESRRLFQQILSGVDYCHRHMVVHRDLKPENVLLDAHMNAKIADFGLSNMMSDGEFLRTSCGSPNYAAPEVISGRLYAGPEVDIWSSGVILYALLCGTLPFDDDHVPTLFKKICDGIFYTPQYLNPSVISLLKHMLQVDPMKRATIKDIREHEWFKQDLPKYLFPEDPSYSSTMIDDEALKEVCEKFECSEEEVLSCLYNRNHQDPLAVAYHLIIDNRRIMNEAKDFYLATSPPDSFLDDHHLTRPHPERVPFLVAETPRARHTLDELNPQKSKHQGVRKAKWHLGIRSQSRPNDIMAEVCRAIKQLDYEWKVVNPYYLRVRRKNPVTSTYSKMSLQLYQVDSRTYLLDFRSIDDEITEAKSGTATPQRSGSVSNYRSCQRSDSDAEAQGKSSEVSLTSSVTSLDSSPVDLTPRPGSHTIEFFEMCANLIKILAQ
Chain of Dual specificity mitogen-activated protein kinase kinase 2 (P36507 whole entry): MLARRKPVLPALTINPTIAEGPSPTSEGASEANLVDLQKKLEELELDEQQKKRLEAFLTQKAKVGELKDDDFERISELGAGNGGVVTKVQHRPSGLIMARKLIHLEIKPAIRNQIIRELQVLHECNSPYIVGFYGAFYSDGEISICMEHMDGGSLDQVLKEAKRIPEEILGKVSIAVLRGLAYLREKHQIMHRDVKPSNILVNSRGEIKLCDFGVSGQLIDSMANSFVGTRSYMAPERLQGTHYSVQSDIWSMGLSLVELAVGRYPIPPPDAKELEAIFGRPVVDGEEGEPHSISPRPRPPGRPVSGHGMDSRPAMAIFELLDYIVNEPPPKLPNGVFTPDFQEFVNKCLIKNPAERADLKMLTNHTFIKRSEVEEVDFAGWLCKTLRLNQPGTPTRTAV
Chain of Mitogen-activated protein kinase 9 (P45984 whole entry): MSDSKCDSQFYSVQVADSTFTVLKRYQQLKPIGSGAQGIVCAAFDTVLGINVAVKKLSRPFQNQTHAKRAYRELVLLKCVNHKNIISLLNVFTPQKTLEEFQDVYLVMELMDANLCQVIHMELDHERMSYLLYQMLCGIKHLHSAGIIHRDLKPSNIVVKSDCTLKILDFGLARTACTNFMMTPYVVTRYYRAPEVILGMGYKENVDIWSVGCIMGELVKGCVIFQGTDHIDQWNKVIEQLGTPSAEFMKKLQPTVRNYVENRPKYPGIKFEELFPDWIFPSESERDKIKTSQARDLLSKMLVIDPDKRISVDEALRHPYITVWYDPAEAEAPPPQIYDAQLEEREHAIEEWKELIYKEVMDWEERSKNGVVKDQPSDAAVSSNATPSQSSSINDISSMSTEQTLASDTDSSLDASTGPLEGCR

One may read the Kd as the concentration at which binding is half-saturated. Take `O=c1[nH]c([C@@H]2CCCN2)nc2c1oc1ccc(Cl)cc12`: the Kd in test [1], in test [2], in test [3], in test [4], in test [5] and in test [6] was > 30 µM (inactive) in each case. The Kd (on Ephrin type-B receptor 3; in test [7]; in test [8]; on GTP-binding protein 4) was > 30 µM (inactive) each time.
Turning to `CCN1CCN(Cc2ccc(Nc3ncc(F)c(-c4cc(F)c5nc(C)n(C(C)C)c5c4)n3)nc2)CC1` [ABEMACICLIB], the Kd in test [1] was > 30 µM (inactive); in [2], > 30 µM (inactive); in test [3], > 30 µM (inactive); in [4], 0.495 µM (active); in [5], 0.019 µM (active); in test [6], 3.76 µM (active). Further, the Kd (at Ephrin type-B receptor 3; in [7]; in [8]; on GTP-binding protein 4) was > 30 µM (inactive) throughout.
For `FC(F)(F)c1ccc(CNc2ccc(Cc3c[nH]c4ncc(Cl)cc34)cn2)cn1` [PEXIDARTINIB], the Kd in [1], in test [2], in test [3], in [4], in [5] and in test [6] was > 30 µM (inactive) throughout. Further, the Kd (on Ephrin type-B receptor 3; in test [7]; in [8]; on GTP-binding protein 4) was > 30 µM (inactive) throughout.
In the case of `Cc1cc(C(=O)Nc2cc(Oc3ccc4nc(NC(=O)C5CC5)cn4n3)ccc2C)n(C)n1` [TAK-593], the Kd in [1], in test [2], in test [3], in test [4], in test [5] and in test [6] was > 30 µM (inactive) in each case. Further, the Kd (at Ephrin type-B receptor 3; in test [7]; in [8]; on GTP-binding protein 4) was > 30 µM (inactive) throughout.
`CCc1nc(C(N)=O)c(Nc2ccc(N3CCC(N4CCN(C)CC4)CC3)c(OC)c2)nc1NC1CCOCC1` [GILTERITINIB]: the Kd in test [1] was 0.43 µM (active); in test [2] it was > 30 µM (inactive); in test [3] it was > 30 µM (inactive); in [4], 0.295 µM (active); in test [5], 0.207 µM (active); in [6], 0.736 µM (active). Further, the Kd on Ephrin type-B receptor 3 was > 30 µM (inactive); in [7] it was 0.502 µM (active); in test [8], > 30 µM (inactive); at GTP-binding protein 4, > 30 µM (inactive).
For the molecule `C=CC(=O)Nc1cccc(Nc2nc(Nc3ccc(N4CCN(C(C)=O)CC4)cc3OC)ncc2C(F)(F)F)c1` [ROCILETINIB], the Kd (in test [1]; in [2]; in [4]; in test [5]; in test [6]; on Ephrin type-B receptor 3) was > 30 µM (inactive) in each case. In addition, the Kd (in [7]; in test [8]; on GTP-binding protein 4; in test [9]) was > 30 µM (inactive) in each case.
As to `COc1cc2ncnc(Nc3ccc(F)c(Cl)c3)c2cc1NC(=O)/C=C/CN1CCCCC1` [DACOMITINIB ANHYDROUS], the Kd in [1], in test [2], in test [3], in test [4], in test [5] and in test [6] was > 30 µM (inactive) each time. For the same molecule, the Kd (at Ephrin type-B receptor 3; in test [7]; in [8]; on GTP-binding protein 4) was > 30 µM (inactive) in each case.
For the molecule `Cc1c(NC(=O)OC[C@@H]2COCCN2)cn2ncnc(Nc3ccc4c(cnn4Cc4cccc(F)c4)c3)c12` [AC-480], the Kd (in [1]; in test [2]; in test [4]; in [5]; in [6]; on Ephrin type-B receptor 3) was > 30 µM (inactive) each time. Moreover, the Kd (in test [7]; in test [8]; at GTP-binding protein 4; in [9]) was > 30 µM (inactive) each time.
Take `O=C(NC[C@H](O)CO)c1ccncc1Nc1ccc(I)cc1F` [PIMASERTIB]: the Kd (in test [1]; in [2]; in [4]; in test [5]; in test [6]; on Ephrin type-B receptor 3) was > 30 µM (inactive) in each case. The Kd was 0.038 µM (active) in test [7], > 30 µM (inactive) in [8], > 30 µM (inactive) on GTP-binding protein 4 and > 30 µM (inactive) in test [9].
In the case of `CC(C)CC(=O)Nc1[nH]nc2c1CN(C(=O)C1CCN(C)CC1)C2(C)C` [PHA-793887], the Kd (in [1]; in [2]; in test [4]; in [5]; in [6]; at Ephrin type-B receptor 3) was > 30 µM (inactive) in each case. Besides, the Kd (in test [7]; in test [8]; at GTP-binding protein 4; in [9]) was > 30 µM (inactive) throughout.
Turning to `COc1ccc(-c2ccc3ncc4c(c3c2)n(-c2ccc(N3CCNCC3)c(C(F)(F)F)c2)c(=O)n4C)cn1` [BGT-226 FREE BASE], the Kd (in test [1]; in [2]; in test [4]; in [5]; in test [6]; at Ephrin type-B receptor 3) was > 30 µM (inactive) in each case. For the same molecule, the Kd (in test [7]; in [8]; at GTP-binding protein 4; in [9]) was > 30 µM (inactive) in each case.
